≈ marks a conversion by molar mass, not a printed value. Where two headings read alike, the source gives them in different places. Bridge positions count the residues as written; N and C are the ends. Square brackets hold non-standard residues; d marks the D form. Peptide text beside a SMILES is read from it. * marks the point of attachment. Decanoyl = CCCCCCCCCC(=O)*; Nonanoyl = CCCCCCCCC(=O)*; Dab = NCC[C@H](N)C(=O)O
Legend:
[1] = tested on: E. coli ATTC 8739; type: cell-based, Escherichia coli; details: for MIC E. coli: ATTC 8739; for MIC E. c.: Supplementary Table S1, E. coli
Method: (§1) MICs were measured after 18–20 h of incubation in sterile 96-well plates (Corning Costar 3598 microtiter plates) in Mueller Hinton Broth (MHB) culture medium, (Difco, USA), according to well known in vitro protocols. Bacterial strains in Table 1 were: P. aeruginosa ATTC 9027, E. coli ATTC 8739, S. aureus ATTC 6538, and E. faecalis ATTC 29212. MICs shown in table 4 were performed by Mary Conrad at Cubist Pharmaceuticals (Lexington, MA) in non-binding surface plates.

[2] = tested on: P. aeruginosa ATTC 9027; type: cell-based, Pseudomonas aeruginosa; details: for MIC P. aeruginosa: ATTC 9027; for MIC P. a.: Supplementary Table S1, P. aeruginosa
Method: as §1

[3] = tested on: S. aureus ATTC 6538; test: microbe, parasite or virus in culture; type: cell-based, Staphylococcus aureus; details: for MIC S. aureus: ATTC 6538; for MIC S. a.: Supplementary Table S1, S. aureus
Method: as §1

Row | Compound | MIC S. a. [3] [µg/mL] | MIC E. c. [1] [µg/mL] | MIC P. a. [2] [µg/mL] | also measured
1 | CCCCCCCCC(=O)N[C@@H](CCN)C(=O)N[C@H](C(=O)N[C@@H](CCN)C(=O)N[C@H]1CSSC[C@@H](C(N)=O)NC(=O)[C@H](CCN)NC(=O)[C@H](CCN)NC(=O)[C@H](CC(C)C)NC(=O)[C@@H](Cc2ccccc2)NC(=O)[C@H](CCN)NC1=O)[C@@H](C)O [Analog 1, nonanoyl-Dab-Thr-Dab-Cys-Dab-Phe-Leu-Dab-Dab-Cys] (Nonanoyl-[Dab]T[Dab]C[Dab][dF]L[Dab][Dab]C-NH2; disulfide 4-10) |  |  |  | MIC E. coli [1]: 4 µg/mL (≈ 3.27 µM); MIC P. aeruginosa [2]: 8 µg/mL (≈ 6.54 µM)
2 | CCCCCCCCC(=O)N[C@@H](CCCNC(=N)N)C(=O)N[C@H](C(=O)N[C@@H](CCN)C(=O)N[C@H]1CSSC[C@@H](C(N)=O)NC(=O)[C@H](CCN)NC(=O)[C@H](CCN)NC(=O)[C@H](CC(C)C)NC(=O)[C@@H](Cc2ccccc2)NC(=O)[C@H](CCN)NC1=O)[C@@H](C)O [Analog 2, nonanoyl-Arg-Thr-Dab-Cys-Dab-Phe-Leu-Dab-Dab-Cys] (Nonanoyl-RT[Dab]C[Dab][dF]L[Dab][Dab]C-NH2; disulfide 4-10) |  |  |  | MIC S. aureus [3]: >32 µg/mL; MIC E. coli [1]: 8 µg/mL (≈ 6.25 µM); MIC P. aeruginosa [2]: 8 µg/mL (≈ 6.25 µM)
3 | CCCCCCCCC(=O)N[C@@H](CCN)C(=O)N[C@H](C(=O)N[C@@H](CCCNC(=N)N)C(=O)N[C@H]1CSSC[C@@H](C(N)=O)NC(=O)[C@H](CCN)NC(=O)[C@H](CCN)NC(=O)[C@H](CC(C)C)NC(=O)[C@@H](Cc2ccccc2)NC(=O)[C@H](CCN)NC1=O)[C@@H](C)O [Analog 3, nonanoyl-Dab-Thr-Arg-Cys-Dab-Phe-Leu-Dab-Dab-Cys] (Nonanoyl-[Dab]TRC[Dab][dF]L[Dab][Dab]C-NH2; disulfide 4-10) |  |  |  | MIC S. aureus [3]: >32 µg/mL; MIC E. coli [1]: 8 µg/mL (≈ 6.25 µM); MIC P. aeruginosa [2]: 4 µg/mL (≈ 3.13 µM)
4 | CCCCCCCCC(=O)N[C@@H](CCN)C(=O)N[C@H](C(=O)N[C@@H](CCN)C(=O)N[C@H]1CSSC[C@@H](C(N)=O)NC(=O)[C@H](CCN)NC(=O)[C@H](CCCNC(=N)N)NC(=O)[C@H](CC(C)C)NC(=O)[C@@H](Cc2ccccc2)NC(=O)[C@H](CCN)NC1=O)[C@@H](C)O [Analog 4, nonanoyl-Dab-Thr-Dab-Cys-Dab-Phe-Leu-Arg-Dab-Cys] (Nonanoyl-[Dab]T[Dab]C[Dab][dF]LR[Dab]C-NH2; disulfide 4-10) |  |  |  | MIC S. aureus [3]: >32 µg/mL; MIC E. coli [1]: 8 µg/mL (≈ 6.25 µM); MIC P. aeruginosa [2]: 2 to 4 µg/mL
5 | CCCCCCCCC(=O)N[C@@H](CCN)C(=O)N[C@H](C(=O)N[C@@H](CCCNC(=N)N)C(=O)N[C@H]1CSSC[C@@H](C(N)=O)NC(=O)[C@H](CCN)NC(=O)[C@H](CCCNC(=N)N)NC(=O)[C@H](CC(C)C)NC(=O)[C@@H](Cc2ccccc2)NC(=O)[C@H](CCN)NC1=O)[C@@H](C)O [Analog 6, nonanoyl-Dab-Thr-Arg-Cys-Dab-Phe-Leu-Arg-Dab-Cys] (Nonanoyl-[Dab]TRC[Dab][dF]LR[Dab]C-NH2; disulfide 4-10) |  |  |  | MIC E. coli [1]: 8 µg/mL (≈ 5.99 µM); MIC P. aeruginosa [2]: 8 µg/mL (≈ 5.99 µM)
6 | CCCCCCCCC(=O)N[C@@H](CCCNC(=N)N)C(=O)N[C@H](C(=O)N[C@@H](CCCNC(=N)N)C(=O)N[C@H]1CSSC[C@@H](C(N)=O)NC(=O)[C@H](CCCNC(=N)N)NC(=O)[C@H](CCCNC(=N)N)NC(=O)[C@H](CC(C)C)NC(=O)[C@@H](Cc2ccccc2)NC(=O)[C@H](CCN)NC1=O)[C@@H](C)O [Analog 10, nonanoyl-Arg-Thr-Arg-Cys-Dab-Phe-Leu-Arg-Arg-Cys] (Nonanoyl-RTRC[Dab][dF]LRRC-NH2; disulfide 4-10) |  |  |  | MIC S. aureus [3]: 32 µg/mL (≈ 22.1 µM); MIC E. coli [1]: 32 µg/mL (≈ 22.1 µM); MIC P. aeruginosa [2]: 16 µg/mL (≈ 11.1 µM)
7 | CCCCCCCCC(=O)N[C@@H](CCCNC(=N)N)C(=O)N[C@H](C(=O)N[C@@H](CCN)C(=O)N[C@H]1CSSC[C@H](C(N)=O)NC(=O)[C@H](CCN)NC(=O)[C@H](CCCNC(=N)N)NC(=O)[C@H](CC(C)C)NC(=O)[C@@H](Cc2ccccc2)NC(=O)[C@H](CCN)NC1=O)[C@@H](C)O [Analog 13, nonanoyl-Arg-Thr-Dab-Cys-Dab-Phe-Leu-Arg-Dab-Cys] (Nonanoyl-RT[Dab]C[Dab][dF]LR[Dab][dC]-NH2; disulfide 4-10) |  |  |  | MIC S. aureus [3]: 16 µg/mL (≈ 12 µM); MIC E. coli [1]: 4 µg/mL (≈ 2.99 µM); MIC P. aeruginosa [2]: 8 µg/mL (≈ 5.99 µM)
8 | CCCCCCCCCC(=O)N[C@@H](CCCNC(=N)N)C(=O)N[C@H](C(=O)N[C@@H](CCN)C(=O)N[C@H]1CSSC[C@@H](C(N)=O)NC(=O)[C@H](CCN)NC(=O)[C@H](CCCNC(=N)N)NC(=O)[C@H](CC(C)C)NC(=O)[C@@H](Cc2ccccc2)NC(=O)[C@H](CCN)NC1=O)[C@@H](C)O [Analog 36, decanoyl-Arg-Thr-Dab-Cys-Dab-Phe-Leu-Arg-Dab-Cys] (Decanoyl-RT[Dab]C[Dab][dF]LR[Dab]C-NH2; disulfide 4-10) |  |  |  | MIC S. aureus [3]: 16 µg/mL (≈ 11.9 µM); MIC E. coli [1]: 8 µg/mL (≈ 5.93 µM); MIC P. aeruginosa [2]: 8 µg/mL (≈ 5.93 µM)
9 | CCCCCCCCCC(=O)N[C@@H](CCN)C(=O)N[C@H](C(=O)N[C@@H](CCN)C(=O)N[C@H]1CSSC[C@H](C(N)=O)NC(=O)[C@H](CCN)NC(=O)[C@H](CCN)NC(=O)[C@H](CC(C)C)NC(=O)[C@@H](Cc2ccccc2)NC(=O)[C@H](CCN)NC1=O)[C@@H](C)O [Analog 37, decanoyl -Dab-Thr-Dab-Cys-Dab-Phe-Leu-Dab-Dab-Cys] (Decanoyl-[Dab]T[Dab]C[Dab][dF]L[Dab][Dab][dC]-NH2; disulfide 4-10) |  |  |  | MIC S. aureus [3]: 8 µg/mL (≈ 6.46 µM); MIC E. coli [1]: 2 µg/mL (≈ 1.62 µM); MIC P. aeruginosa [2]: 4 µg/mL (≈ 3.23 µM)
10 | C9-Arg(NO2)-Thr-Dab-Cys-Dab-Phe-Leu-Arg(NO2)-Dab-Cys [Analog 16] | > 32 |  |  | 
11 | C9-Arg-Thr-Arg-Cys-Arg-Phe-Leu-Arg-Dab-Cys (RTRCRFLR; not fully specified; C9 acyl; Dab-Cys C-terminal; printed: Arg-Thr-Arg-Cys-Arg-Phe-Leu-Arg-) [Analog 11] | 16 | 16 | 128 | 
12 | C9-Arg-Thr-Arg-Cys-Dab-Phe-Leu-Dab-Dab-Cys [Analog 7] | 32 | 32 | 32 | 
13 | C9-Arg-Thr-Arg-Cys-Dab-Phe-Met-Arg-Dab-Cys [Analog 22] | 32 | 16 | 16 | 
14 | C9-Arg-Thr-Dab-Cys-Arg-Phe-Leu-Arg-Dab-Cys [Analog 9] | 16 | 16 | 128 | 
15 | C9-Arg-Thr-Dab-Cys-Dab-Gly-Gly-Arg-Dab-Cys [Analog 24] | > 128 | > 128 | > 128 | 
16 | C9-Arg-Thr-Dab-Cys-Dab-Gly-Leu-Arg-Dab-Cys [Analog 25] | > 128 | > 128 | > 128 | 
17 | C9-Arg-Thr-Dab-Cys-Dab-Leu-Leu-Arg-Dab-Cys [Analog 29] | 32 | 32 | 16 | 

Row | Compound | MIC S. a. [3] [µg/mL] | MIC E. c. [1] [µg/mL] | MIC P. a. [2] [µg/mL] | also measured
18 | C9-Arg-Thr-Dab-Cys-Dab-Leu-Thr-Arg-Dab-Cys [Analog 30] | > 128 | 32 | 32 | 
19 | C9-Arg-Thr-Dab-Cys-Dab-Phe-Gly-Arg-Dab-Cys [Analog 26] | 128 | 64 | > 128 | 
20 | C9-Arg-Thr-Dab-Cys-Dab-Phe-Leu-Arg-Dab-Cys [Analog 17] |  |  |  | MIC P. a. ([2]; listed as 17): 16 µg/mL
21 | C9-Arg-Thr-Dab-Cys-Dab-Phe-Leu-Arg-Dab-Cys [Analog 23] | 32 | 64 |  | MIC P. a. ([2]; listed as 23): 128 µg/mL
22 | C9-Arg-Thr-Dab-Cys-Dab-Phe-Met-Arg-Dab-Cys [Analog 21] | > 32 |  | 8 | 
23 | C9-Arg-Thr-Dab-Cys-Dab-Phe-Thr-Arg-Dab-Cys [Analog 27] | 64 | 16 | 8 | 
24 | C9-Arg-Thr-Dab-Cys-Dab-Trp-Leu-Arg-Dab-Cys [Analog 28] | 8 | 4 | 8 | 
25 | C9-Arg-Thr-Dab-Ser-Dab-Phe-Leu-Arg-Dab-Ser [Analog 18] | 64 | 32 | 64 | 
26 | C9-Arg-Thr-His-Cys-Dab-Phe-Leu-Arg-His-Cys [Analog 31] | 128 | 32 | 32 | 
27 | C9-Arg-Thr-Lys-Cys-Dab-Phe-Leu-Arg-Lys-Cys [Analog 32] | 32 | 8 | 16 | 
28 | C9-Arg-Thr-Orn-Cys-Dab-Phe-Leu-Arg-Orn-Cys [Analog 34] | 32 | 8 | 16 | 
29 | C9-Dab-Thr-Dab-Cys-Dab-Phe-Met(O)-Dab-Dab-Cys [Analog 20] | > 32 | > 32 |  | 
30 | C9-Dab-Thr-Dab-Cys-Dab-Phe-Met-Dab-Dab-Cys [Analog 19] | 32 | 4 | 16 | 
31 | C9-Dab[(C=NH)NH2]-Thr-Dab-Cys-Dab-Phe-Leu-Dab[(C=NH)NH2]-Dab-Cys [Analog 15] | > 32 | 4 | 8 | 
32 | C9-Dap[(C=NH)NH2]-Thr-Dab-Cys-Dab-Phe-Leu-Dap[(C=NH)NH2]-Dab-Cys [Analog 14] | 16 | 2 | 16 | 
33 | C9-Lys-Thr-Dab-Cys-Dab-Phe-Leu-Lys-Dab-Cys [Analog 33] | 128 | 16 | 32 | 
34 | C9-Orn-Thr-Dab-Cys-Dab-Phe-Leu-Orn-Dab-Cys [Analog 35] | 64 | 16 | 16 | 
